According to patent US20260234139A1, “PGDH INHIBITORS AND METHODS OF MAKING AND USING” (Epirium Bio Inc., priority 2023, published 2026):

Experiments:
15-PGDH/HPGD = molecular target: T1, 15-PGDH/HPGD (Homo sapiens, UniProt P15428); experiment: hPGDH inhibitor screening biochemical assay; conditions: 10 nM enzyme, 15 μM Prostaglandin E2, 0.25 mM NAD, fluorescence ex/em 340/485 nm
T1 construct: purchased R&D System 5660-DH
T1 sequence (P15428 1-266): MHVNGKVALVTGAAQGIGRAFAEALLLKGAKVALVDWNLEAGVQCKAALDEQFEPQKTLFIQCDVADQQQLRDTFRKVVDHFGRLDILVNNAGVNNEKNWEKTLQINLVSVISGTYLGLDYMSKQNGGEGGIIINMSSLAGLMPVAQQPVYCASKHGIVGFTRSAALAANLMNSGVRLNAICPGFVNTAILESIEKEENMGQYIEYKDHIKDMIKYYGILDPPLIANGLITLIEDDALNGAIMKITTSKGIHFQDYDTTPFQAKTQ
Protocol: A hydroxyprostaglandin dehydrogenase inhibition screening biochemical assay can be performed to assess the synthesized inhibitors provided herein. Provided herein is an exemplary biochemical assay for hPGDH inhibitor screening.
The in vitro biochemical assay can be performed in white, 384 plates in total 20 μl reaction volume consisting of 10 nM of 15-PGDH/HPGD (R&D System #5660-DH), 15 μM Prostaglandin E2 (Sigma, Cat #P5640-10 MG) and 0.25 mM B-Nicotinamide adenine dinucleotide sodium salt (Sigma, Cat #N0632-5G) made in reaction buffer (50 mM Tris-HCl, pH 7.5, 0.01% Tween 20) at 10-point dose response curve for test/tool compounds. Briefly, 5 μl (4×) of compounds solution and 5 μl (final concentration, 10 nM) of enzyme solution is added to white 384 well plates and incubated for 10 mins at 37° C. 5 μl (4×) of Prostaglandin E2 and 5 μl (4×) of β-Nicotinamide adenine dinucleotide sodium salt is added to the wells and incubated for 10 mins at room temperature. Fluorescence is recorded at ex/em=340 nm/485 nm.

A549 = A549 EC50 (cell assay, method not described); type: cell-based; conditions: Homo sapiens, A549, A549

SMILES | IC50 (15-PGDH/HPGD) | EC50 (A549)
CC(C)OCC(O)c1cnc2c(cnn2-c2ccc(CCC(=O)O)c(F)c2)c1 (stereo in doubt) [Compound 70B, (S)-3-(2-fluoro-4-(5-(1-hydroxy-2-isopropoxyethyl)-1H-pyrazolo[3,4-b]pyridin-1-yl)phenyl) propanoic acid] | < 100 nM | 100 to 1000 nM
CCCC[C@H](O)c1cnc2c(ccn2-c2cc(Cl)cc(-c3nnc[nH]3)c2)c1 [Compound 17B] | < 100 nM | < 100 nM
O[C@H](COC1CCC1)c1cnc2c(cnn2-c2ccc(N3CCOCC3)cc2)c1 [Compound 76B] | ≥ 1000 nM | ≥ 1000 nM
O[C@@H](COC1CCC1)c1cnc2c(cnn2-c2cccc(-c3nnc[nH]3)c2)c1 [Compound 24A] | < 100 nM | 100 to 1000 nM
O=C(O)c1ccc(-n2ncc3cc([C@H](O)COC4(C(F)(F)F)CCC4)cnc32)cc1 [Compound 115B] | < 100 nM | < 100 nM
CCOC1([C@@H](O)c2cnc3c(cnn3-c3ccc4nc(N5CCOCC5)nn4c3)c2)CC1 [Compound 62B] | 100 to 1000 nM | ≥ 1000 nM
O=C(O)c1ccc(-n2ncc3cc([C@@H](O)COC4CCCC4)cnc32)cc1 [Compound 89A] | < 100 nM | ≥ 1000 nM
O[C@H](COC1CC1)c1cnc2c(ccn2-c2cccc(-c3nnc[nH]3)c2)n1 [Compound 38A] | < 100 nM | < 100 nM
O=C(O)c1ccc(-n2ncc3cc(C(O)C4CC(F)(F)C4)cnc32)cc1 (single isomer, unassigned) [Compound 45A] | < 100 nM | 100 to 1000 nM
CC(C)CC[C@H](O)c1cnc2c(ccn2-c2ccc(C(=O)O)cc2)n1 [Compound 40A] | < 100 nM | < 100 nM
CN(C)C(=O)c1cccc(-n2ncc3cc([C@H](O)COC4CCC4)cnc32)c1 [Compound 111B] | ≥ 1000 nM | ≥ 1000 nM
CCCC(F)(F)[C@H](O)c1cnc2c(ccn2-c2cccc(-c3nnc[nH]3)c2)n1 [Compound 35B] | 100 to 1000 nM | ≥ 1000 nM
CNC(=O)c1ccc(-n2ncc3cc([C@@H](O)COC4CCC4)cnc32)cc1 [Compound 84B] | 100 to 1000 nM | ≥ 1000 nM
O[C@@H](COC1CC1)c1cnc2c(ccn2-c2cccc(-c3nnc[nH]3)c2)n1 [Compound 38B] | < 100 nM | 100 to 1000 nM
COC1([C@@H](O)c2cnc3c(cnn3-c3cccc(-c4nnc[nH]4)c3)c2)CCC1 [Compound 65A] | 100 to 1000 nM | 100 to 1000 nM
CCOC[C@H](O)c1cnc2c(cnn2-c2cccc(-c3nnc[nH]3)c2)c1 [Compound 23A] | < 100 nM | 100 to 1000 nM
O[C@@H](c1cnc2c(cnn2-c2cccc(-c3nnc[nH]3)c2)c1)C1COC1 [Compound 28A] | < 100 nM | < 100 nM
O=C(NC[C@@H](O)c1cnc2c(cnn2-c2cccc(-c3nnc[nH]3)c2)c1)C1CC1 [Compound 39B] | 100 to 1000 nM | ≥ 1000 nM
O[C@@H](c1cnc2c(ccn2-c2cccc(-c3nnc[nH]3)c2)c1)C1CCC1 [Compound 10B] | < 100 nM | < 100 nM
CC(C)OC[C@H](O)c1cnc2c(cnn2-c2ccc(CCCC(=O)O)cc2)c1 [Compound 66B] | 100 to 1000 nM | 100 to 1000 nM
COC(C)(C)CC[C@H](O)c1cnc2c(cnn2-c2cccc(-c3nnc[nH]3)c2)c1 [Compound 55A] | < 100 nM | 100 to 1000 nM
CC(C)NC[C@H](O)c1cnc2c(ccn2-c2cccc(-c3nnc[nH]3)c2)n1 [Compound 22A] | ≥ 1000 nM | ≥ 1000 nM
C[C@H]1C[C@@H](OC[C@H](O)c2cnc3c(cnn3-c3ccc(C(=O)O)cc3)c2)C1 [Compound 127A] | < 100 nM | ≥ 1000 nM
CC(C)OCC[C@H](O)c1cnc2c(ccn2-c2cccc(-c3nnc[nH]3)c2)c1 [Compound 41A] | < 100 nM | 100 to 1000 nM
C[C@H]1C[C@@H](OC[C@@H](O)c2cnc3c(cnn3-c3ccc(C(=O)O)cc3)c2)C1 [Compound 127B] | < 100 nM | < 100 nM
O[C@H](COC1CCC1)c1cnc2c(ccn2-c2cccc(-c3nnc[nH]3)c2)n1 [Compound 30A] | < 100 nM | 100 to 1000 nM
C[C@H]1C[C@H](OC[C@H](O)c2cnc3c(cnn3-c3ccc(C(=O)O)cc3)c2)C1 [Compound 127C] | 100 to 1000 nM | ≥ 1000 nM
O[C@H](c1cnc2c(ccn2-c2cccc(-c3nnc[nH]3)c2)c1)C1CCC1 [Compound 10A] | < 100 nM | < 100 nM

SMILES | IC50 (15-PGDH/HPGD) | EC50 (A549)
O[C@H](c1cnc2c(cnn2-c2cccc(-c3nnc[nH]3)c2)c1)C1C2CCCCC21 (some centres unmarked) [Compound 51A] | < 100 nM | 100 to 1000 nM
O[C@@H](c1cnc2c(cnn2-c2ccc3nc(N4CCOCC4)nn3c2)c1)C1COC1 [Compound 64B] | < 100 nM | < 100 nM
CCOC1([C@@H](O)c2cnc3c(cnn3-c3cccc(-c4nnc[nH]4)c3)c2)CC1 [Compound 63B] | < 100 nM | 100 to 1000 nM
CC(C)NC[C@@H](O)c1cnc2c(cnn2-c2cccc(-c3nnc[nH]3)c2)c1 [Compound 27B, (S)-1-(1-(3-(4H-1,2,4-triazol-3-yl)phenyl)-1H-pyrazolo[3,4-b]pyridin-5-yl)-2-(isopropylamino) ethan-1-ol] | < 100 nM | 100 to 1000 nM
O=C(O)c1ccc(-n2ccc3nc([C@H](O)COC4CCC4)cnc32)cc1 [Compound 47B] | < 100 nM | < 100 nM
O[C@H](c1cnc2c(cnn2-c2cccc(-c3nnc[nH]3)c2)c1)C1CCOCC1 [Compound 52A] | < 100 nM | 100 to 1000 nM
O=C(O)c1ccc(-n2ccc3nc([C@@H](O)COCC4CC4)cnc32)cc1 [Compound 112A] | < 100 nM | ≥ 1000 nM
CC(C)OCC[C@@H](O)c1cnc2c(cnn2-c2cccc(-c3nnc[nH]3)c2)c1 [Compound 44A] | < 100 nM | < 100 nM
O=C(O)CCc1ccc(-n2ncc3cc([C@@H](O)COC4CCC4)cnc32)cc1F [Compound 82A] | < 100 nM | 100 to 1000 nM
NC(=O)c1ccc(-n2ncc3cc([C@@H](O)COC4CCC4)cnc32)cc1 [Compound 81B] | < 100 nM | 100 to 1000 nM
CNC(=O)c1ccc(-n2ncc3cc([C@@H](O)COC(C)C)cnc32)cc1 [Compound 67B] | < 100 nM | 100 to 1000 nM
CCCC[C@@H](O)c1cnc2c(ccn2-c2cc(Cl)cc(-c3nnc[nH]3)c2)c1 [Compound 17A] | < 100 nM | < 100 nM
O=C(O)c1ccc(-n2ncc3cc([C@H](O)COC4CCC4)cnc32)cc1F [Compound 94B] | < 100 nM | ≥ 1000 nM
O=C(NC[C@H](O)c1cnc2c(cnn2-c2cccc(-c3nnc[nH]3)c2)c1)C1CC1 [Compound 39A] | ≥ 1000 nM | ≥ 1000 nM
Cc1nn(-c2ccc(C(=O)O)cc2)c2ncc([C@@H](O)COC3CCC3)cc12 [Compound 109A] | < 100 nM | ≥ 1000 nM
O=C(O)c1ccc(-n2ncc3cc([C@H](O)COC4CCCC4)cnc32)cc1 [Compound 89B] | < 100 nM | < 100 nM
CC(C)OC[C@H](O)c1cnc2c(cnn2-c2ccc(CC(=O)O)cc2)c1 [Compound 71B] | ≥ 1000 nM | ≥ 1000 nM
CC(F)(F)[C@H](O)c1cnc2c(ccn2-c2cccc(-c3nnc[nH]3)c2)c1 [Compound 5B] | 100 to 1000 nM | 100 to 1000 nM
C[C@@H](OC1CCC1)[C@H](O)c1cnc2c(cnn2-c2ccc(C(=O)O)cc2)c1 [Compound 108A] | < 100 nM | < 100 nM
O=C(O)c1ccc(-n2ncc3cc([C@@H](O)COC4(C(F)(F)F)CCC4)cnc32)cc1 [Compound 115A] | < 100 nM | 100 to 1000 nM
C[C@H]1C[C@H](OC[C@@H](O)c2cnc3c(cnn3-c3ccc(C(=O)O)cc3)c2)C1 [Compound 127D] | < 100 nM | < 100 nM
CCOC1([C@@H](O)c2cnc3c(cnn3-c3cccc(-c4nnc[nH]4)c3)c2)CCC1 [Compound 83B] | 100 to 1000 nM | ≥ 1000 nM
O[C@@H](c1cnc2c(cnn2-c2cccc(-c3nnc[nH]3)c2)c1)C1CCOCC1 [Compound 52B] | < 100 nM | < 100 nM
CC(C)C[C@H](O)[C@H](O)c1cnc2c(ccn2-c2cccc(-c3nnc[nH]3)c2)c1 [Compound 3C, (1R,2S)-4-methyl-1-[1-[3-(4H-1,2,4-triazol-3-yl)phenyl]pyrrolo[2,3-b]pyridin-5-yl]pentane-1,2-diol] | < 100 nM | 100 to 1000 nM
CC(C)OC[C@@H](O)c1cnc2c(ccn2-c2cccc(-c3nnc[nH]3)c2)c1 [Compound 29B] | < 100 nM | < 100 nM
CN(C)C(=O)c1cccc(-n2ncc3cc([C@@H](O)COC4CCC4)cnc32)c1 [Compound 111A] | < 100 nM | 100 to 1000 nM
CC(C)(O)CC[C@H](O)c1cnc2c(cnn2-c2cccc(-c3nnc[nH]3)c2)c1 [Compound 56A] | < 100 nM | 100 to 1000 nM
